Data on four compounds can be found in patent US20230107216A1, “PANTETHEINE DERIVATIVES AND USES THEREOF” (Comet Therapeutics, Inc., priority 2018, published 2023).

The test system of experiment [1] is Methylmalonic Acidemia (MMA) primary fibroblasts GM01673. In words: Mitochondrial respiration, XFe96 Extracellular Flux Analyzer (OCR/ECAR), MMA fibroblasts GM01673. The settings on record: Homo sapiens, Fibroblast, 10 μM. It counts as cell-based. On the procedure:
The effect of the compounds of the present disclosure on mitochondrial respiration was measured with a XFe96 Extracellular Flux Analyzer (Seahorse Bioscience, Agilent Technologies) and Oxygen consumption Rate (OCR) and Extracellular acidification rate (ECAR) determined.
Cell culture and treatments. Primary adherent fibroblasts were cultured in minimum essential medium (MEM) (Gibco, 25030081) supplemented with 2 mM L-Glutamine (Gibco, 25030081), 15% fetal bovine serum (FBS) (Gibco, 26400044) and 1% penicillin/streptomycin (Gibco, 5140122) at 37° C. and 5% CO2. Cells were collected for either passaging or experiment at ˜70-80% confluence. Cells were obtained by trypsinization and seeded at 20000 cells/well in cell culture microplates (Seahorse Bioscience, 101085-004) and allowed to adhere for 16 hours in culture media.
By profiling different primary cells and/or optimizing their culture media or environmental components one can select cell lines and/or conditions that are appropriate for the biological or disease model. In the present example, 24 hours prior to OCR and ECAR profiling, media was changed to Dulbecco's Modified Eagle Medium (DMEM, Agilent Seahorse 103575-100) with the appropriate supplements for the different primary cells (10 mM glucose, 2 mM L-glutamine, 1 mM pyruvate, 10% FBS; 1 mM glucose, 2 mM L-glutamine, 1 mM pyruvate, 10% FBS; 10 mM glucose, 10% FBS; 5 mM glucose 10% FBS; 1 mM glucose 10% FBS). Cells used in this example were: Propionic Acidemia (PA) (GM00371, GM03590 Coriell Institute for Medical Research, Tsi 6337, Tsi 4626, Tsi 3618 Trans-Hit Bio), Methylmalonic Acidemia (MMA) (GM01673, Coriell Institute for Medical Research, Tsi 5224 Trans-Hit Bio), Branched chain ketoacid dehydrogenase kinase (BCKDK) (GM00612, GM00649 Coriell Institute for Medical Research), Subnormal activation of pyruvate dehydrogenase complex (PDH) (GM01503 Coriell Institute for Medical Research), Very long-chain acyl-CoA dehydrogenase (VLCAD) (GM17475), Leigh Syndrome (LS) (GM03672, GM13411 Coriell Institute for Medical Research), Pyruvate Carboxylase Deficiency (PC) (GM00444 Coriell Institute for Medical Research), Glutaric Acidemia-I (GA) (GM10653), Friedreich's Ataxia (FXN) (GM04078 Coriell Institute for Medical Research, Huntington's disease (HD) (GM21756 Coriell Institute for Medical Research), Ornithine Transcarbamylase Deficiency (OTC) (GM12756 Coriell Institute for Medical Research), Kearns-Sayre Syndrome (KSS) (GM06225 Coriell Institute for Medical Research).
One hour before the assay, the cells were washed with freshly prepared unbuffered serum free-Seahorse XF Assay medium (Seahorse Bioscience, North America, USA, 103575-100) with the same supplements as for the previous 24 hour incubation.
After baseline measurements of OCR, cells were challenged with compounds of the present disclosure at different concentrations (10 to 50 μM) or vehicle (DMSO, 0.1%) and a post-compound baseline was recorded. OCR was measured after sequentially adding to each well 1 μg/ml oligomycin (inhibitor of ATP synthase Sigma-Aldrich, 753531), then maximal OCR was determined with carbonyl cyanide 4-(trifluoromethoxy) phenylhydrazone (FCCP, Sigma-Aldrich, C2920), (uncoupler of oxidative phosphorylation) and 0.5 μM of rotenone (Sigma-Aldrich, R8875) plus antimycin A (Sigma-Aldrich, A8674) (inhibitors of mitochondrial complex I and III) for determination of rotenone-antimycin insensitive respiration together with Hoechst for nuclear staining in situ when normalized to cell counts. After the analysis and nuclear staining, the XFp microplate was transferred to the Cytation 5, and the nuclear images were captured, the individual nuclei were identified and counted by BioTek Gen5 software. Data were expressed as pmol of O2 per minute and normalized by nuclear staining and baselined to pre-compound addition.
Assay conditions were as stated below.
Assay specifics on assay conditions are indicated below when readouts were normalized to cell counts. […]

The test system of experiment [2] is Propionic Acidemia (PA) primary fibroblasts GM00371. Nature of the experiment: Mitochondrial respiration, XFe96 Extracellular Flux Analyzer (OCR/ECAR), PA fibroblasts GM00371. As to conditions: Homo sapiens, Fibroblast, 50 μM, read-out: Increase in Maximal Respiratory Capacity AUC. It counts as cell-based.
Experiment [3] relates to HepG2 cells. In words: Glucose uptake (Glucose Uptake-Glo). In kind it is cell-based. The settings on record: Homo sapiens, 50 uM, read-out: % increase in Glucose Uptake.
Experiment [4] relates to Peripheral blood mononuclear cells co-cultured with venular endothelial cells (HUVEC) (LPS system). In words: BioMAP LPS system. In kind it is cell-based, human. As to conditions: 10 uM, procedure of Example 827.
Experiment [5] concerns Bronchial epithelial cells co-cultured with dermal fibroblast (BF4T system). In words: BioMAP BF4T system (TNFα and IL-4). In kind it is cell-based, human. As to conditions: Homo sapiens, 24 h; 1 uM; procedure of Example 830; read-out: % increase in VCAM-1.
Experiment [6] concerns Bronchial epithelial cells (BE3C system). In words: BioMAP BE3C system (IL-1β, TNFα, IFNγ). It counts as cell-based, human. As to conditions: Homo sapiens, Epithelial cell, 24 h; 10 uM; procedure of Example 831; read-out: % decrease in MMP-1.
Experiment [7] deals with Coronary artery smooth muscle cells (CASM3C system). Nature of the experiment: BioMAP CASM3C system (IL-1β, TNFα, IFNγ). It counts as cell-based, human.
Experiment [8] has as its system Dermal fibroblasts (HDF3CGF system). Nature of the experiment: BioMAP HDF3CGF system (IL-1β, TNFα, IFNγ, EGF, bFGF, PDGF-BB). As to conditions: Homo sapiens, Fibroblast, 72 h; 1 uM; read-out: % increase in 72 Hour Proliferation. In kind it is cell-based, human.
The test system of experiment [9] is Keratinocytes co-cultured with dermal fibroblast (KF3CT system). In words: BioMAP KF3CT system (IL-1β, TNFα, IFNγ, TGFβ). In kind it is cell-based, human. The settings on record: 1 uM. Here is the method: The BioMAP platform (BioMAP® Diversity PLUS® Panel from Eurofins) is an in vitro phenotypic profiling technology that screened the compounds of the present disclosure (hereafter indicated as test agents) in human primary cell-based systems modelling complex tissue and disease states. The BioMAP assays were performed using the Eurofin's BioMAP Technology Platform as (see references 1 to 13 in the example 824 section) to model different diseases on primary cell-based model systems. These systems consisted of either single primary cell types or co-culture cells. Adherent cell types were cultured or co-cultured in 96 or 384-well plates until confluence followed by the addition of compounds prepared in DMSO at a final concentration of ≤0.1%. In each cell-based system, primary cells from heathy donors (2-6 donors) were pooled and treated with compounds at 1 and 10 μM dose 1h prior to stimulation and remain in culture as indicated in Example 825, Example 826, Example 827, Example 828, Example 829, Example 830, Example 831, Example 832, Example 833, Example 834, Example 835, Example 836 and Example 837. For on the BioMAP® Diversity PLUS® Panel, please see the following references, which are incorporate herein.
Following the general procedure as described in Example 824, Keratinocytes were co-cultured with dermal fibroblast (KF3CT system) and treated with IL-1β, TNFα, IFNγ and TGFβ for 24h in the presence or absence of the compounds to model psoriasis, dermatitis and skin biology. Biomarkers read out were; MCP-1, ICAM-1, IP-10, IL-8, MIG, IL-1α, MMP-9, PAI-1, SRB, TIMP-2, uPA.

Experiment [10] has as its system Peripheral blood mononuclear cells co-cultured with B-cells (BT system). Nature of the experiment: cells. As to conditions: Homo sapiens, 72 h, read-out: % decrease in sIL-17.
Experiment [11] has as its system HepG2 cells. In words: MitoBiogenesis In-Cell ELISA (COX-I, SDH-A). In kind it is cell-based. As to conditions: Homo sapiens, 168 h, 10 uM, 7 days, read-out: % increase in Mitochondrial Biogenesis. The source says: We determined the effect of compounds of the present disclosure on the levels of two mitochondrial proteins using MitoBiogenesis™ In-Cell ELISA Kit (Abcam ab110216) according to manufacturer's instructions. The two proteins are each subunits of a different oxidative phosphorylation enzyme complex, one protein being subunit I of Complex IV (COX-1), which is mitochondrial (mt)DNA-encoded, and the other being the 70 kDa subunit of Complex II (SDH-A), which is nuclear (n)DNA-encoded. Complex IV includes several proteins which are encoded in the mitochondrion, while the proteins of Complex II are entirely encoded in the nucleus. HepG2 cells (ATCC, HB-8065) were cultured (5% CO2 at 37° C.) and plated in Poly-D-Lysine 384-Well plate (Corning, 356663) at a density of 40,000 cells/mL in 50 μL. Culture and assay media consisted of DMEM (Gibco, 11995-065) supplemented with 1% Penicillin-Streptomycin and 10% FBS (Hyclone, SV30087.03). Cells were allowed to settle for 30 min at room temperature and further incubated overnight (37° C. and 5% CO2) for adherence. Next day, 50-5 μM of the negative control Chloramphenicol (Selleck, S1677), test compounds (50-10 μM) and vehicle DMSO (0.2%) were added at the recommended volumes to the 384-well plate for 7 days without media change using a Tecan compound dispenser. All the solutions and wash buffers were prepared and dispensed according to manufacturer's volumes for a 384-well plate format. Effects of compounds on mtDNA-encoded protein expression (COX-I) and nuclear DNA-encoded mitochondrial protein expression (SDH-A) were expressed as relative signal (nm) to vehicle of a n=2 per conditions.
A general note: ELISA stands for enzyme-linked immunosorbent assay.

The test system of experiment [12] is HepG2 cells. In words: Mitochondrial membrane potential (MITO-ID MP detection Kit). In kind it is cell-based. As to conditions: Homo sapiens, 168 h, 7 days, read-out: % decrease in Mitochondrial Membrane Potential. The essentials: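 Cells plated at 160000 cells/mL in DMEM with 10% FBS and 1% Pen-Strep, adhered overnight at 37° C., 5% CO2. Exposure to test compounds (50-10 μM) or 0.2% DMSO for 7 days without media change; membrane potential measured with MITO-ID MP detection kit per manufacturer.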

The test system of experiment [13] is primary fibroblasts (healthy controls and PA, MMA, BCKDK, PDH, VLCAD, LS, PC, GA, VLCFA, KSS, FXN, HD). In words: Measurement of ROS (H2DCFDA) in primary fibroblasts. As to conditions: Homo sapiens, Fibroblast, PC GM00444, procedure Example 812, Assay Condition C. It counts as cell-based, human. The essentials: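 Patient and healthy-control primary fibroblasts switched to supplemented DMEM 24 h before assay, then treated with compound (10 μM) plus H2DCFDA (22 μM) for 2 h (PA, MMA lines) or 24 h (other lines). Kinetic fluorescence at 492/527 nm over 60 min; only live cells analysed.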

Read-outs that look alike come from different tables or passages of the source. Bounds are passed on as bounds.

`CC(C)(CO)[C@@H](O)C(=O)NCCC(=O)NCCSC(CC(=O)O)C(=O)OCC[N+](C)(C)C` (stereo partly drawn) [Compound 57, 3-(2-{3-[(R)-2,4-dihydroxy-3,3-dimethylbutyrylamino]propionylamino}ethylthio)-3-(2-trimethylazaniumethoxycarbonyl)propionic acid]: the activation at 10 µM in [1] (assay condition D (1 mM glucose, 10% FBS), read-out: Increase in Maximal Respiratory Capacity AUC) was at least 10%; in experiment [4] (Homo sapiens, HUVEC, 24 h, read-out: % increase in sTNFα), at least 20%. Also, the activation at 50 µM is at least 10% in experiment [2] (assay condition C (10 mM glucose, 10% FBS)) and at least 20% in the experiment with HepG2 cells [3]. Also, the “% increase in sPGE2” value in experiment [4] is at least 10%. The inhibition at 10 µM in [4] (Homo sapiens, HUVEC, 24 h, read-out: % decrease in TissueFactor) was at least 10%; in [6], at least 10%; in experiment [7] (Homo sapiens, 24 h, 10 uM, read-out: % decrease in Thrombomodulin), at least 20%; in [10], at least 20%. The activation at 1 µM in experiment [5] and in experiment [8] was at least 10% each time. Further, the “% decrease in Tissue Factor” value in [7] (1 uM) is at least 10%. In addition, the “% decrease in Proliferation” value in [7] (1 uM, procedure of Example 832) is listed as at least 10%. Further, in [7] (10 uM), the “% decrease in CXCL9” value is at least 10%. Moreover, the “% decrease in HLA-DR” value in experiment [7] (10 uM) is at least 10%. In addition, in experiment [9], the “% decrease in PAI-I” value is at least 10%. Besides, in [9] (procedure of 834), the “% decrease in MCP-1” value is given as at least 10%.

With `COC(=O)CCC(=O)SCCNC(=O)CCNC(=O)[C@H](O)C(C)(C)COP(=O)(O)O` [Compound 62, Methyl (R)-4-((2-(3-(2-hydroxy-3,3-dimethyl-4-(phosphonooxy)butanamido)propanamido)ethyl)thio)-4-oxobutanoate], the activation at 10 µM in the experiment with HepG2 cells [11] was above 5%. In the experiment on HepG2 cells [12] (50 uM), the inhibition at 50 µM was above 50%.

Consider `CC(C)(CO)[C@@H](O)C(=O)NCCC(=O)NCCSC(=O)CC[C@H](N)C(=O)O` [Compound 385, (S)-2-amino-5-((2-(3-((R)-2,4-dihydroxy-3,3-dimethylbutanamido)propanamido)ethyl)thio)-5-oxopentanoic acid], for which, in [1] (assay condition A (10 mM glucose, 2 mM L-glutamine, 1 mM pyruvate, 10% FBS), read-out: Increase in Spare Capacity AUC), the activation at 10 µM is at least 10%. For the same compound, the activation at 50 µM in experiment [2] (assay condition D (1 mM glucose, 10% FBS)) is at least 10%. Further, the inhibition at 10 µM is at least 10% in [13] (read-out: Decreased ROS by at least 10%) and at least 30% in experiment [13] (read-out: Decreased ROS by at least 30%).

Consider `CSCCNC(=O)CCNC(=O)[C@H](O)C(C)(C)CO` [Compound 1250, (R)-2,4-dihydroxy-3,3-dimethyl-N-(3-((2-(methylthio)ethyl)amino)-3-oxopropyl)butanamide], for which, in the experiment with HepG2 cells [11], the activation at 10 µM was above 5%. For the same compound, the inhibition at 10 µM in the experiment with HepG2 cells [12] (10 uM) was above 50%.
